Here are results for one compound from paper PMC6526117 (Experimental Neurobiology, 2019).

What all share (experiment): whole-cell patch clamp, SCAM block of ICl,swell
Type in all cases: cell-based
Common to all, as to details: read-out: % block

Test [1] addresses T1, TTYH1 (Mus musculus, UniProt Q9D3A9, V164C).
T1 sequence (Q9D3A9 1-450 V164C): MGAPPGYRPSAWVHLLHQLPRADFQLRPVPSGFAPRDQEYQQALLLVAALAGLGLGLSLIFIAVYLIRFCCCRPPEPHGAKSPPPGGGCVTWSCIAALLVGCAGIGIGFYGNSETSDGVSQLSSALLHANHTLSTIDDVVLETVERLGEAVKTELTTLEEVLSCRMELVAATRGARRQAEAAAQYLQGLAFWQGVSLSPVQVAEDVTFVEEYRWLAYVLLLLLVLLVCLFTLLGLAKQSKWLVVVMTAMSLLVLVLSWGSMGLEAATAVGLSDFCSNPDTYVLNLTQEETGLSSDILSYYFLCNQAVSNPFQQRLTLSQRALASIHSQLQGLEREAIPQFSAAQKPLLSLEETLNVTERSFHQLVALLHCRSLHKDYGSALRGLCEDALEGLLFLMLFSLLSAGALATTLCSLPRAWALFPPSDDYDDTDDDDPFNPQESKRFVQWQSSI

Test [2] has as its target T2, TTYH1 (Mus musculus, UniProt Q9D3A9).
T2 sequence (Q9D3A9 1-450): T1 sequence (Q9D3A9 1-450 V164C) with C164V

Test [3] addresses T3, TTYH1 (Mus musculus, UniProt Q9D3A9, R165C).
T3 sequence (Q9D3A9 1-450 R165C): T1 sequence (Q9D3A9 1-450 V164C) with C164V, R165C

Positions count from the first letter of the chain named.

For `CS(=O)(=O)SCCS(=O)(=O)O` [MTSES], the inhibition at 100000 µM came to 28.9% on TTYH1 [1], 9.01% on TTYH1 [2] and 36.6% at TTYH1 [3].
